Measurements: patent EP4186514A1, “PHARMACEUTICAL COMPOSITION FOR PREVENTING OR TREATING CHOLANGITIS OR LIVER DISEASE CAUSED BY CHOLANGITIS COMPRISING ADENOSINE DERIVATIVE” (Future Medicine Co., Ltd., priority 2021, dated 2023)

How the values were obtained:
[1] = system: BDL mouse model; assay: Efficacy in bile duct ligation (BDL) mouse model of cholangitis and liver disease; assay type: in vivo, C57BL/6 mice; details: for Hyaluronic acid values reduced: serum ELISA, compared to BDL control group (G2)
Description: After 23 C57BL/6 mice were prepared and subjected to quarantine and acclimation, a bile duct ligation (BDL) surgery and a sham surgery were performed by dividing the animals into groups.
The BDL rodent model is one of the most commonly used methods to induce obstructive cholestatic injury (Tag, C. G et al., Bile Duct Ligation in Mice: Induction of Inflammatory Liver Injury and Fibrosis by Obstructive Cholestasis, J. Vis. Exp. (96), e52438, doi: 10.3791/52438 (2015)). The BDL model induces liver fibrosis and inflammation by causing obstructive cholestasis, and since such symptoms are generally observed in patients with PBC after stage II, the corresponding model may adequately reflect an important aspect of PBC pathology. The advantages of the BDL model are technical validity, reproducibility, and the short time it takes to reach the pathogenomonic status of human portal hypertension.
The surgery day was set to day 0, and the test material was orally administered once a day for 2 weeks from day 1 to day 14. The dose was 10 mL/kg based on the body weight measured before administration. As a test material, a compound of formula A mixed with 0.5% methylcellulose (MC), which is a vehicle, was used, and only the vehicle was used in the control.
The treatment contents of each group are summarized as in the following Table 1.
Blood was collected through the abdominal vein under respiratory anesthesia on day 14, and serum was isolated. After blood collection, liver tissue was collected and weighed, half of the left lateral lobe from the tissue was placed in a tube and immersed in liquid nitrogen, and the other half was fixed in neutral formalin. • Blood biochemical analysis: aspartate aminotransferase (AST), alanine aminotransferase (ALT), alkaline phosphatase (ALP), γ-glutamyl transpeptidase (GGT) and total bilirubin (T-BIL) were measured using a serum biochemical analyzer (Accute, Toshiba). In addition, after blood collection, the body weight was measured by collecting liver tissue. • mRNA expression: RNA was extracted using a portion of the left lateral lobe removed from the liver tissue, cDNA was synthesized using an RNase inhibitor (DR22-R10k, Solgent, Korea) and DiaStar ™ RT Kit, and qRT-PCR was performed using Power SYBR Green PCR Master Mix (Applied Biosystems by Thermo Fisher Scientific, USA).
The following Table 2 lists sequences of primers of mouse Gapdh, Acta2(actin alpha 2 chain), Col1a1(proalpha1(I) chain) and tissue inhibitor of metalloproteinases-1 (Timp1) used for qRT-PCR.
• Analysis of cytokine levels: TNF-α, IL-1β and hyaluronic acid levels in serum were measured using an ELISA kit. • Analysis of hydroxyproline: a portion of the left lateral lobe of liver tissue was extracted, and the hydroxyproline value of liver lysate was measured by a microplate reader (SpectraMax ABS Plus, Molecular Devices) using a hydroxyproline assay kit (Abcam).
The experimental results are shown as mean ± SD, and the test material-administered group was compared with the vehicle control (BDL, G2). Statistical analysis was performed using one-way ANOVA followed by Fisher's least significant difference test using GraphPad Prism (version 5.01) and SPSS (version 24) software. P < 0.05 was considered statistically significant.

[2] = Plasma stability, human plasma; assay type: in vitro ADME
Description: In order to test the physicochemical properties of the adenosine derivative of the inventive concept, experiments were conducted on the compound of the formula A in vitro, and the results are shown in Table 3. Plasma stability and protein binding were measured using rat and human plasma.

[3] = Pharmacokinetic test in dogs (Experimental Example 6); assay type: in vivo; details: dog, plasma, maximum (Experimental Example 6), read-out: half-life T1/2
Description: In order to test the ADME properties of the adenosine derivative of the inventive concept after oral administration, pharmacokinetic properties of the compound of the formula A were measured in vivo.
Intravenous administration was performed through a tube inserted into the femoral vein, and oral administration was performed using oral gavage.
After the administration, the experimental animals' blood was taken at predetermined time intervals for 24 hours. Then, the blood was centrifuged to separate plasma. The plasma samples were pretreated with a suitable organic solvent, and then the concentration of the plasma samples was analyzed by LC-MS/MS. The blood concentration-time data of the compound of the formula A was analyzed using WinNonlin (Pharsight, USA), and graphs of the blood concentration-time data are shown in FIGS. 5 through 9. The results of noncompartmental pharmacokinetic parameters calculated from the blood concentration-time data are shown in Tables 5 through 9. In FIGS. 5 through 9, I.V. represents an intravenous administration group, P.O. represents an oral administration group, and the definition of each parameter in Tables 5 through 9 is shown in Table 10.
FIG. 8 and Table 8 show a graph and parameter values obtained from the blood concentration-time data of Experimental Example 6 (6-1, 6-2 and 6-3). […]

[4] = system: ICR mice; assay: Toxicity after intraperitoneal injection, mice; assay type: in vivo; details: intraperitoneal 20, 10 and 1 mg/kg
Description: The Adenosine Derivative of the present invention were assayed for cytotoxicity in animals.

[5] = system: histidine-requiring Salmonella (strains TA98, TA100, TA1535 and TA1537) and tryptophan-requiring Escherichia coli (strain WP2uvrA (pKM101)); assay type: cell-based
Description: In order to test the genotoxicity of the compound of the formula A, the gene mutagenicity of the compound of the formula A was evaluated in the presence and absence of metabolic activation by using histidine-requiring Salmonella (strains TA98, TA100, TA1535 and TA1537) and tryptophan-requiring Escherichia coli (strain WP2uvrA (pKM101)).

[6] = 10 mg/kg oral once a day (G3), serum day 14, compared with BDL control group (G2)

O[C@@H]1[C@H](O)CS[C@H]1n1cnc2c(NCc3cccc(Cl)c3)nc(Cl)nc21 [Example 2, (2R,3R,4S)-2-(2-chloro-6-(3-chlorobenzylamino)-9H-purin-9-yl)tetrahydrothiophen-3,4-diol]
content of liver hydroxyproline decreased ([1]; 10 mg/kg (G3), liver lysate): 39%
Hyaluronic acid values reduced ([1]; 10 mg/kg (G3)): 51%
AAR decreased [1, 6]: 21%
ALT decreased [1, 6]: 37%
AST decreased [1, 6]: 48%
Hyaluronic acid values reduced ([1]; 30 mg/kg (G4)): 47%
AST decreased ([1]; 30 mg/kg oral once a day (G4), serum day 14, compared with BDL control group (G2)): 38%
Acta2 mRNA levels ([1]; liver tissue, qRT-PCR, BDL groups G3 (10 mg/kg) and G4 (30 mg/kg)): decreased
Plasma stability [2]: 98.9
half-life [3]: ≥ 5.53 h
weight gain or feed intake versus control group [4]: No difference
death ([4]; observation for 24 hrs): No death was observed
number of back-mutant colonies versus negative control group ([5]; all doses of each strain, regardless of the metabolic activation): did not exceed twice the number of back-mutant colonies of the negative control group
dose-dependent increase of back-mutant colonies ([5]; each strain, presence and absence of metabolic activation): no dose-dependent increase was observed
Toxicity, Genotoxicity evaluation ([5]; summary Table 11): Not detected
